{"source": "paper PMC4929687", "about": "(Scientific Reports, 2014)", "target": "T1, human kidney-type glutaminase (KGA), catalytic domain (cKGA) (Homo sapiens, UniProt O94925)", "T1 sequence (O94925 221-533)": "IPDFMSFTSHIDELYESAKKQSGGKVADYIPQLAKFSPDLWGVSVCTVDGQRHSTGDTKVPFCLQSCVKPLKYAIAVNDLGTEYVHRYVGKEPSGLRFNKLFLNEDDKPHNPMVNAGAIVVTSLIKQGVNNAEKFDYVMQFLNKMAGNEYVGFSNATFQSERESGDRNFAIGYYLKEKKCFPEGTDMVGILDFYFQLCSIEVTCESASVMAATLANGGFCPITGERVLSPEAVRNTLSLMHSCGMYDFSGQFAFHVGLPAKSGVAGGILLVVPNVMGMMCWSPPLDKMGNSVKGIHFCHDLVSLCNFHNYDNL", "experiment": "X-ray crystal structure at […] Å", "format": "biochemical"}
{"compound": "[N-]=[N+]=CC(=O)CC[C@H](N)C(=O)O", "note": "[DON, 6-diazo-5-oxo-L-norleucine]", "values": [{"measurement": "IC50", "value": "~1000", "unit": "µM"}]}
